# Active and inactive are the calls of the source.
# Tests used:
# [1] = molecular target: T1, Short transient receptor potential channel 4 (Mus musculus, UniProt Q9QUQ5); assay: block of DAMGO-driven TRPC4 calcium entry – cell-based, HEK293 TRPC4/mu-opioid, Fluo-4 calcium, dose response (AID 434942); assay type: functional;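 also: potency of inhibitors blocking the TRPC4 calcium response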
# T1 sequence (Q9QUQ5 whole entry): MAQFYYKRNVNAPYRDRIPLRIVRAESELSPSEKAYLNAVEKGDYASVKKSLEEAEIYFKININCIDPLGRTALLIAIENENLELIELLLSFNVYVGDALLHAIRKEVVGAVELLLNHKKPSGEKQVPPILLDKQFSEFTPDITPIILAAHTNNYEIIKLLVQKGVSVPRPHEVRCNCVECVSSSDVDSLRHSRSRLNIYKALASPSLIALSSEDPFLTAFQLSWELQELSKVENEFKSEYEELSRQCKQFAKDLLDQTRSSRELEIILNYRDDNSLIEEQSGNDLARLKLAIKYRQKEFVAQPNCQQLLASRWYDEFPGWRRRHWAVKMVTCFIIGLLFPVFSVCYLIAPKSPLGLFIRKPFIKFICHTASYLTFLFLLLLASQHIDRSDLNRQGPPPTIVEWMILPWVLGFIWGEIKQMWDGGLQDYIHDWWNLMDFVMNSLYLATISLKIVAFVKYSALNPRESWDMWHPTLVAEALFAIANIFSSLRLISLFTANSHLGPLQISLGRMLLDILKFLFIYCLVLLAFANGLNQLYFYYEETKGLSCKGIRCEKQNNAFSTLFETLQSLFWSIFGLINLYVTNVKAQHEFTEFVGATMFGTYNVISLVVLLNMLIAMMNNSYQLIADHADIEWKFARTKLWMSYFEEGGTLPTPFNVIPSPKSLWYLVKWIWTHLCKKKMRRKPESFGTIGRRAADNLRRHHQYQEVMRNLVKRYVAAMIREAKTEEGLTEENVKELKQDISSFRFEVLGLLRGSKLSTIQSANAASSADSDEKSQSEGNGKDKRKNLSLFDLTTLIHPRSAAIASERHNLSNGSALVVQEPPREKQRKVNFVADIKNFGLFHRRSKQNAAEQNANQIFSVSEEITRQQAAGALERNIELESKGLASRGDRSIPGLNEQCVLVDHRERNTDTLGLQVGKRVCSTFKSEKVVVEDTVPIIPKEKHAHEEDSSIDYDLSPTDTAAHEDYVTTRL
# [2] = molecular target: T2, Epstein-Barr nuclear antigen 1 (Epstein-Barr virus (strain B95-8) (HHV-4) (Human herpesvirus 4), UniProt P03211); assay: inhibition of EBV nuclear antigen 1 DNA binding – biochemical, fluorescence polarization, 1536-well, dose response (AID 2381); design: species or system human gammaherpesvirus 4;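 also: fluorescence polarization of a Cy5 DNA probe bound by EBNA-1 protein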
# T2 sequence (P03211 whole entry): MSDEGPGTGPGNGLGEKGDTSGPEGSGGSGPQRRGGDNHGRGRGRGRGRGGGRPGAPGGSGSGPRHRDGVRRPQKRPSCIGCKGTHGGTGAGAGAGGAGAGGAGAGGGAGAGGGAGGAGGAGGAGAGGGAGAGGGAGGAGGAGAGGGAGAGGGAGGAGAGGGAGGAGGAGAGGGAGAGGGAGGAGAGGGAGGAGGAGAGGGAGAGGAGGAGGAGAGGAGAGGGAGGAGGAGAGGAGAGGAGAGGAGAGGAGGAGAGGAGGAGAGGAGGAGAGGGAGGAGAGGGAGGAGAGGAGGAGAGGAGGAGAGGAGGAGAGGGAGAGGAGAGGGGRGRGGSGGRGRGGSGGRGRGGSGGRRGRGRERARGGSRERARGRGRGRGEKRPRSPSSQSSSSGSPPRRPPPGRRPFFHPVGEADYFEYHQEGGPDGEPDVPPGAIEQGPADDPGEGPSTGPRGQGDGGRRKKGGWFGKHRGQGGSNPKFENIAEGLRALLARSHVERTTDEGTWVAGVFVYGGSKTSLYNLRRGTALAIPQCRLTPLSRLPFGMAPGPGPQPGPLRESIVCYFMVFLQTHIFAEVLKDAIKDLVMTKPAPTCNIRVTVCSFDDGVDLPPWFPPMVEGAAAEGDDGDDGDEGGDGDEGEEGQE
# [3] = molecular target: T3, Lytic switch protein BZLF1 (Epstein-Barr virus (strain B95-8) (HHV-4) (Human herpesvirus 4), UniProt P03206); assay: inhibition of BZLF1 ZTA DNA binding – biochemical, fluorescence polarization, Epstein-Barr virus, 1536-well, counter-screen for EBNA-1 inhibitor project, dose response (AID 2377); design: species or system human gammaherpesvirus 4;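 also: fluorescence polarization of Cy5-labelled ZRE DNA probe bound by purified Zta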
# T3 sequence (P03206 whole entry): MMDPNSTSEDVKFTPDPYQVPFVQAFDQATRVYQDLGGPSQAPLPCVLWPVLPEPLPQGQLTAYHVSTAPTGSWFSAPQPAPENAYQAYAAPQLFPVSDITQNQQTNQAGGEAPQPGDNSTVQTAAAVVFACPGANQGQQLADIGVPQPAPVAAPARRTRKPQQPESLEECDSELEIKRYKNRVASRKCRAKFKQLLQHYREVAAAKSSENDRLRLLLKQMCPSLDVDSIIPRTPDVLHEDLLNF
# [4] = molecular target: T4, Acyl-homoserine lactone acylase PvdQ (Pseudomonas aeruginosa (strain LESB58), UniProt Q9I194); assay: PvdQ acylase enzyme activity blockers – biochemical, fluorescence, plate reader and imaging, cherry-picks, dose response (AID 493231)
# T4 sequence (Q9I194 whole entry): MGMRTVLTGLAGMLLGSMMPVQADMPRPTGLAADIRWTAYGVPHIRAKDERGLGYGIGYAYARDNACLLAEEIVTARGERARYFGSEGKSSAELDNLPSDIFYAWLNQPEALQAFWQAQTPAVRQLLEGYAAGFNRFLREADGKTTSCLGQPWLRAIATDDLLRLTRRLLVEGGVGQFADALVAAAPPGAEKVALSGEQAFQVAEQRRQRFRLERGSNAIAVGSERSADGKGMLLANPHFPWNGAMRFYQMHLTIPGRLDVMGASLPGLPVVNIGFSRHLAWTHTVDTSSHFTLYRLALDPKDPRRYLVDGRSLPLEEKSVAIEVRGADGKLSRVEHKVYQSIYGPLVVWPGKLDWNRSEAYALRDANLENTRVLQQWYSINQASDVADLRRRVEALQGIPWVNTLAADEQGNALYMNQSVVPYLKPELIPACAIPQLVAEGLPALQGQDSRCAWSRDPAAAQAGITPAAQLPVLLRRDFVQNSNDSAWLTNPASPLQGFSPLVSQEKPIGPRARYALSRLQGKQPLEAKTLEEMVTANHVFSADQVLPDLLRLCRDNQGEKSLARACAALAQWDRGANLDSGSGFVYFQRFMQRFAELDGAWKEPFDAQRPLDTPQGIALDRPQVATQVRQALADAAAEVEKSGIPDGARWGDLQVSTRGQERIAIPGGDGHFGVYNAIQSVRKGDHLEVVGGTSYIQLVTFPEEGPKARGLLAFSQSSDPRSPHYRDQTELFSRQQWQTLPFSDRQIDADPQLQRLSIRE
# [5] = molecular target: G-protein coupled receptor 35 (Homo sapiens, UniProt Q9HC97); assay: inhibition of zaprinast-stimulated GPR35 beta-arrestin translocation – imaging, U2OS, beta-arrestin-GFP, zaprinast agonist, primary screen (AID 2058); assay type: functional;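 also: antagonist potency meaning inhibition of agonist-induced arrestin redistribution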
# Chain of G-protein coupled receptor 35 (Q9HC97 whole entry): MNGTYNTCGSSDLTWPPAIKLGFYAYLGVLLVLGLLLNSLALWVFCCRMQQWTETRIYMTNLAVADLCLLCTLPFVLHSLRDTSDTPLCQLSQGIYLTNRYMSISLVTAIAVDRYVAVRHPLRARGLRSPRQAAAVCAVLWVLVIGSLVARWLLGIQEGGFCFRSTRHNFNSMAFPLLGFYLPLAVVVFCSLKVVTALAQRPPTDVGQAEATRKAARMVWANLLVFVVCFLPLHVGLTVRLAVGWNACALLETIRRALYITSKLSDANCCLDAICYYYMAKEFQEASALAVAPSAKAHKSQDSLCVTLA
# BJ [6] = assay: BJ-TERT fibroblast viability loss – cell-based, RAS-independent, luminescence, dose response (AID 1933); assay type: functional; settings: Homo sapiens
# BJ [7] = assay: cells; assay type: functional, cell-based; settings: Homo sapiens
# BJ [8] = assay: BJ-TERT-LT-ST fibroblast viability loss – cell-based, RAS-independent, luminescence, dose response (AID 1935); assay type: functional; settings: Homo sapiens;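 also: BJ fibroblasts immortalized with TERT plus LT and ST oncogenes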
# [9] = DRD fibroblast viability loss – cell-based, non-viral oncogenic, luminescence, dose response (AID 1934); assay type: functional; settings: Homo sapiens
# [10] = molecular target: T5, Endoribonuclease toxin MazF (Escherichia coli K-12, UniProt P0AE70); assay: activation of MazEF endoribonuclease cleavage – biochemical, fluorescence, single-stranded RNA substrate, uHTS hits, dose response (AID 588481); assay type: functional
# T5 sequence (P0AE70 whole entry): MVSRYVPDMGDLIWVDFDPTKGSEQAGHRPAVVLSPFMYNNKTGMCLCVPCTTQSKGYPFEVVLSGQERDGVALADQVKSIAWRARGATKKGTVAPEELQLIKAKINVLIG
# [11] = molecular target: T5, Endoribonuclease toxin MazF; assay: substrate-only fluorescence increase artefacts – biochemical, single-stranded RNase substrate, counter-screen for MazEF activator project, dose response (AID 588502); assay type: functional
# [12] = mitochondrial function rescue without frataxin homolog – Friedreich's ataxia, plus single-dose screen, dose response (AID 1465); assay type: functional;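 also: yeast depleted of Yfh1p frataxin homolog grown on glycerol needing respiration; WST-1 tetrazolium dye reduction as measure of cellular dehydrogenase metabolic activity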
# [13] = molecular target: Luciferin 4-monooxygenase (Photinus pyralis, UniProt P08659); assay: Counter Screen for Luciferase-based Assay Positives. [Related pubchem assays: 620, 618, 411 ]
# Chain of Luciferin 4-monooxygenase (P08659 whole entry): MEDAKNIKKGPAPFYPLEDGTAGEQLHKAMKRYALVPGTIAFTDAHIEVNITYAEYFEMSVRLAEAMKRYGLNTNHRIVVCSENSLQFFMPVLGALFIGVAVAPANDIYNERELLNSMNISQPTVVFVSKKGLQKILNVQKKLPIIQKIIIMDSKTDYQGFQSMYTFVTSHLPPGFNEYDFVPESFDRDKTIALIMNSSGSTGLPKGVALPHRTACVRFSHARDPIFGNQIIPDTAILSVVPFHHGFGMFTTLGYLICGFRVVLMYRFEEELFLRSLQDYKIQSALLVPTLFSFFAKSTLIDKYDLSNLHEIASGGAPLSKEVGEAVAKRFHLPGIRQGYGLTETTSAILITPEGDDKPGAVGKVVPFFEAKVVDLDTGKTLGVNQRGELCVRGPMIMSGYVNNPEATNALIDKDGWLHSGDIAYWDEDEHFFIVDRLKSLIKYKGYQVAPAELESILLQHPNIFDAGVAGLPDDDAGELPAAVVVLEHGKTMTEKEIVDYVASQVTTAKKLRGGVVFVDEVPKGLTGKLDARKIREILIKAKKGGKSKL
# HT-1080 = assay: HT1080 cell viability loss – fluorescence readout (AID 620); assay type: functional, cell-based; settings: Homo sapiens
# [14] = toxicity toward HepG2 liver cells – cell-based, plate reader, cherry-pick, antagonist series, cytotoxicity control, dose response (AID 743416); assay type: functional
# [15] = blockers of bursicon-stimulated LGR2 cAMP reporter – cell-based, HEK293, CRE-luciferase reporter, cherry pick, set 2, dose response (AID 743343); assay type: functional;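 also: transfected cells were stimulated with diluted bursicon conditioned medium after compound addition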
# [16] = blockade of melanocortin 4 receptor signaling – cell-based, plate reader, cherry pick, counter-screen for LGR2 antagonist project, dose response (AID 743444); assay type: functional;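 also: transfected HEK 293 cells stimulated with alpha-MSH peptide; potency of inhibitors of the alpha-MSH evoked signal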
# [17] = molecular target: 26S proteasome non-ATPase regulatory subunit 14 (Homo sapiens, UniProt O00487); assay: inhibition of proteasome subunit RPN11 – biochemical, fluorescence polarization, uHTS hits, confirmation (AID 602368); assay type: functional
# Chain of 26S proteasome non-ATPase regulatory subunit 14 (O00487 whole entry): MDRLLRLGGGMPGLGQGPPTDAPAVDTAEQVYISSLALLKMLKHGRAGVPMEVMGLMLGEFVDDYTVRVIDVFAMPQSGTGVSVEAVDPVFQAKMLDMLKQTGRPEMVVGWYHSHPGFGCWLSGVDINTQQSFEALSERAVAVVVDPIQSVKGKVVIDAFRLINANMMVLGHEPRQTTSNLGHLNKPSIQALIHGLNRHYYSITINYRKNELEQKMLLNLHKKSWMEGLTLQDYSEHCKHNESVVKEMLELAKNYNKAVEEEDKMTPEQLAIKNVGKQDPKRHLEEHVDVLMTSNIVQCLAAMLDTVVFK
# [18] = molecular target: 72 kDa type IV collagenase (Homo sapiens, UniProt P08253); assay: Dose Response validation of uHTS RPN11 inhibitor hits using a MMP-2 Fluorescence assay.; assay type: functional
# Chain of 72 kDa type IV collagenase (P08253 whole entry): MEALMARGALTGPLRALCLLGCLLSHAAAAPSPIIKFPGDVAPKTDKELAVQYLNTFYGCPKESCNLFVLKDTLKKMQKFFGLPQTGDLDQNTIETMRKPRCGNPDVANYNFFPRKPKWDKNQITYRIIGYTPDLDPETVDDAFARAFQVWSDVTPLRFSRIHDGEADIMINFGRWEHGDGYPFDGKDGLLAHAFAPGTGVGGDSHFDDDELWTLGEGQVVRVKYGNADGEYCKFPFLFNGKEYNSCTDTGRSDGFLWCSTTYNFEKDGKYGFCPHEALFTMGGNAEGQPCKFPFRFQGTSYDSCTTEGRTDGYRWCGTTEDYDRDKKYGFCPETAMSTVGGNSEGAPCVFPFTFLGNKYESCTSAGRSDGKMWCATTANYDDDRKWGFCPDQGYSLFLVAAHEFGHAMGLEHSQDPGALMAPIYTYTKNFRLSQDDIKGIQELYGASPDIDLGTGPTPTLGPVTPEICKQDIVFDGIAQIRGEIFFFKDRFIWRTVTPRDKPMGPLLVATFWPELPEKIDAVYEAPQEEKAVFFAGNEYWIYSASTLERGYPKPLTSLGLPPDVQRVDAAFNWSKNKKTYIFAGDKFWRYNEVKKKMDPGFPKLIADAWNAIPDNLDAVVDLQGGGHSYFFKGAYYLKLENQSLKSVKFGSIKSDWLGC
# Prothrombin = Prothrombin (Bos taurus, UniProt P00735); assay: thrombin protease inhibitors – biochemical, fluorescence polarization, uHTS hits, dose response (AID 602369); assay type: functional
# [19] = molecular target: G-protein coupled receptor 55 (Homo sapiens, UniProt Q9Y2T6); assay: selective activators of receptor GPR55 – imaging, U2OS cells, beta-arrestin-GFP redistribution, primary screen (AID 1961); assay type: functional
# Chain of G-protein coupled receptor 55 (Q9Y2T6 whole entry): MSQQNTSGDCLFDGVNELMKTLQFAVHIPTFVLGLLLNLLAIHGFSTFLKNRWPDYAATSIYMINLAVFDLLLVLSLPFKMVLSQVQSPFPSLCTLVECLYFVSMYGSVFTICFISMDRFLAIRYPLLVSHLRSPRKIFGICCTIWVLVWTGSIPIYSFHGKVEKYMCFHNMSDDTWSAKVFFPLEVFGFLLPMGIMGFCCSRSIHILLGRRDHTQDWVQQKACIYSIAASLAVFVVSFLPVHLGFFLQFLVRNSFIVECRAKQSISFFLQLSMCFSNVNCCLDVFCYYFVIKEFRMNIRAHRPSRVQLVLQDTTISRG
structure (smiles),measurement,setting,value
CCn1c(=O)n(CCOC)c(=O)c2c3c(sc21)CCCC3,EC50,[1],1.19 µM (active)
N#Cc1c2ncn(CC(=O)c3ccc(Br)cc3)c(=O)c2c2n1CCC2,IC50,[2],13.1 µM (not active)
same,IC50,[3],> 111 µM (not active)
CCOC(=O)c1ccc(N2Cc3ccccc3C2=N)cc1,AC50,[4],3.83 µM (active)
COCCN1C(=O)/C(=C/c2ccc(N3CCCC3)cc2)SC1=S,IC50,[5],< 0.5 µM (active)
same,EC50,BJ [6],20.9 µM (inconclusive)
same,EC50,BJ [7],> 150 µM (not active)
same,EC50,BJ [8],> 150 µM (not active)
same,EC50,[9],49.7 µM (active)
same,EC50,[10],> 99 µM (inactive)
same,EC50,[11],> 99 µM (inactive)
Cc1ccc(NC(=O)CSc2ccc(-c3ccc4c(c3)OCO4)nn2)cc1F,IC50,[2],4.44 µM (active)
same,IC50,[3],> 111 µM (not active)
CN1C(=O)C(=Cc2ccc(N3CCOCC3)o2)C(=O)N(C)C1=O,EC50,[12],> 100 µM (active)
COC(=O)c1cc(-c2cccc(OC)c2)on1,AC50,[4],> 100 µM (inactive)
Oc1c2c(nc3cc(-c4ccc(F)cc4)nn13)CCCC2,EC50,[13],79.7 µM (active)
same,EC50,HT-1080,33.8 µM (active)
same,AC50,[14],> 52 µM (inactive)
same,AC50,[15],7.51 µM (active)
same,AC50,[16],6.58 µM (active)
O=[N+]([O-])c1ccc(N2CCCCC2)s1,EC50,[12],> 100 µM (active)
same,IC50,[17],36.1 µM (active)
same,IC50,[18],> 100 µM (inactive)
same,IC50,Prothrombin,68 µM (active)
CCCN(CCC)Cc1c(C(=O)N/N=C/C(C)=C\c2ccccc2)nnn1-c1nonc1N,EC50,[19],0.525 µM (active)
O=C1C=C(c2cccc(Cl)c2)C[C@@H](c2ccc(F)cc2)C1,AC50,[4],9.81 µM (active)

# Source: ChEMBL document CHEMBL1201862, “PubChem BioAssay data set” (2004)
